{"source": "patent US10093666B2", "about": "“Deuterated O-sulfated beta lactam hydroxamic acids and deuterated N-sulfated beta lactams” (ARIXA PHARMACEUTICALS, INC., priority 2016, dated 2018)", "key": {"[1]": {"test": "IV dosing of rats (cassette), plasma concentration vs. time by LC/MS/MS", "details": "for Ratio of b/a: ratio of plasma concentrations b to a (tigemonam), rats, IV", "protocol": "A cohort of three rats was IV dosed using 2 mg/kg cassette IV dosing. […] Samples were withdrawn at various time points indicated below and processed using the following procedure. A 50 μL rat plasma sample was transferred to a well of a 96 well-plate, 20 μL of 0.1 ng/μL of Losartan (internal standard) in acetonitrile was added and 300 μL of acetonitrile/formic acid (100/2). The sample was then vortexed and centrifuged at 300 rpm for 5 minutes. Then 200 μL of the supernatant was mixed with 200 μL of double distilled water and was injected (5 μL) on a phenomex Polar-RP 80A column (75×2.0 mm), which was run at 30° C. at a flow rate of 600 μL/minute with a mobile phase A of acetonitrile/formic acid 100/0.02 and a mobile phase B of water/formic acid 100/0.02.\nEach time point above represents a value obtained by averaging the measured plasma concentration of three rats."}, "[2]": {"test": "Oral dosing of rats (cassette), plasma concentration vs. time by LC/MS/MS", "details": "for Ratio of b/a: ratio of plasma concentrations b to a (tigemonam), oral", "protocol": "Samples were withdrawn at various time points indicated below and processed using the following procedure. A 50 μL rat plasma sample was transferred to a well of a 96 well-plate, 20 μL of 0.1 ng/μL of Losartan (internal standard) in acetonitrile was added and 300 μL of acetonitrile/formic acid (100/2). The sample was then vortexed and centrifuged at 300 rpm for 5 minutes. Then 200 μL of the supernatant was mixed with 200 μL of double distilled water and was injected (5 μL) on a phenomex Polar-RF 80A column (75×2.0 mm), which was run at 30° C. at a flow rate of 600 μL/minute with a mobile phase A of acetonitrile/formic acid 100/0.02 and a mobile phase B of water/formic acid 100/0.02. The eluate was analyzed by LC/MS/MS (electrospray) to provide the following values of plasma concentration vs. time listed in Table 1, which were then plotted to yield the graph illustrated in FIG. 2.\nEach time point above represents a value obtained by averaging the measured plasma concentration of three rats. […] Other compounds may also be tested in the above assay."}}, "data": [{"smiles": "[2H]C([2H])([2H])C1(C([2H])([2H])[2H])[C@H](NC(=O)/C(=N\\OCC(=O)O)c2csc(N)n2)C(=O)N1OS(=O)(=O)O", "note": "[b]", "values": [{"measurement": "effect of deuteration of tigemonam on IV bioavailability", "setting": "[1]; rat, in vivo, iv", "result": "no effect"}, {"measurement": "plasma levels compared with tigemonam", "setting": "[1]; rat, in vivo, iv, 1 mg/kg", "result": "almost identical"}, {"measurement": "r = b − a", "setting": "[1]; rat, in vivo, iv, 0.167 h", "result": 235}, {"measurement": "r = b − a", "setting": "[1]; rat, in vivo, iv, 0.5 h", "result": 19}, {"measurement": "r = b − a", "setting": "[1]; rat, in vivo, iv, 1 h", "result": "−31"}, {"measurement": "r = b − a", "setting": "[1]; rat, in vivo, iv, 2 h", "result": 21}, {"measurement": "r = b − a", "setting": "[1]; rat, in vivo, iv, 4 h", "result": 2}, {"measurement": "r = b − a", "setting": "[1]; rat, in vivo, iv, 6 h", "result": "−2"}, {"measurement": "r = b − a", "setting": "[1]; rat, in vivo, iv, 8 h", "result": 0}, {"measurement": "r = b − a", "setting": "[1]; rat, in vivo, iv, 24 h", "result": 0}, {"measurement": "Ratio of b/a", "setting": "[1]; 0.167 hours", "result": 1.04}, {"measurement": "Ratio of b/a", "setting": "[1]; 0.5 hours", "result": 1.01}, {"measurement": "Ratio of b/a", "setting": "[1]; 1 hours", "result": ".9"}, {"measurement": "Ratio of b/a", "setting": "[1]; 2 hours", "result": 1.14}, {"measurement": "Ratio of b/a", "setting": "[1]; 4 hours", "result": 1.06}, {"measurement": "Ratio of b/a", "setting": "[1]; 6 hours", "result": ".6"}, {"measurement": "effect of deuteration of tigemonam on oral bioavailability", "setting": "[2]; rat, in vivo, po", "result": "increase"}, {"measurement": "plasma level greater than the plasma level of tigemonam", "setting": "[2]; rat, in vivo, po, 5 mg/kg", "result": "at least 20%"}, {"measurement": "r = b − a", "setting": "[2]; rat, in vivo, po, 0.167 h", "result": 266}, {"measurement": "r = b − a", "setting": "[2]; rat, in vivo, po, 0.5 h", "result": 694}, {"measurement": "r = b − a", "setting": "[2]; rat, in vivo, po, 1 h", "result": 531}, {"measurement": "r = b − a", "setting": "[2]; rat, in vivo, po, 2 h", "result": 175}, {"measurement": "r = b − a", "setting": "[2]; rat, in vivo, po, 4 h", "result": 55}, {"measurement": "r = b − a", "setting": "[2]; rat, in vivo, po, 6 h", "result": 4}, {"measurement": "r = b − a", "setting": "[2]; rat, in vivo, po, 8 h", "result": 1}, {"measurement": "r = b − a", "setting": "[2]; rat, in vivo, po, 24 h", "result": 0}, {"measurement": "Ratio of b/a", "setting": "[2]; rats, 0.167 hours", "result": 1.19}, {"measurement": "Ratio of b/a", "setting": "[2]; rats, 0.5 hours", "result": 1.24}, {"measurement": "Ratio of b/a", "setting": "[2]; rats, 1 hours", "result": 1.25}, {"measurement": "Ratio of b/a", "setting": "[2]; rats, 2 hours", "result": 1.26}, {"measurement": "Ratio of b/a", "setting": "[2]; rats, 4 hours", "result": 1.48}, {"measurement": "Ratio of b/a", "setting": "[2]; rats, 8 hours", "result": 1.25}, {"measurement": "Ratio of b/a", "setting": "[2]; rats, C6 hours", "result": 1.15}, {"measurement": "oral absorption compared with tigemonam", "setting": "[2]; rats, oral cassette dosing, 5 mg/kg each", "result": "increased level"}]}]}
